Measured values taken from PMC6274259, “New 3-Cyano-2-Substituted Pyridines Induce Apoptosis in MCF 7 Breast Cancer Cells” (Molecules, 2016).

Test system: SK-OV-3 human ovarian carcinoma cell line
Experiment: WST-1 cell viability assay, SK-OV-3
Assay type: cell-based
Conditions: Homo sapiens, SK-OV-3; WST-1, 24 h treatment, mean ± S.D of three independent experiments
Source text: The synthesized compounds were screened for their cytotoxicity on five cancer cell lines, namely SK-OV-3, MCF-7, MDA-MB-231, HCT-116 and RKO, using a WST colorimetric assay. The assay principle is based upon the reduction of the tetrazolium salt WST-1 to formazan by cellular mitochondrial dehydrogenases present in viable cells. […] Among the latter compounds the benzohydrazide derivative 9a emerged with the lowest IC50 in this study against MCF-7 cells compared to 5-FU. […] Based on the fact that 9a had less cytotoxic effects on normal breast epithelial cells it was subjected to further studies.
The following cell lines were used for the screening stage, obtained from the American Type Culture Collection (ATCC, Manassas, VA, USA); SK-OV-3 (HTB-77), MCF-12A (ATCC CRL-10782), MDA-MB-231 (ATCC HTB-26), HCT-116 (CCL-247), RKO (CRL-2577) and sub-culturing of the above cell lines was conducted in 75 cm^2 flasks. The old culture media was removed and discarded after assessing the confluency of the cells and the cells were rinsed with 2–3 mL diluted trypsin (1×) (trypsin/EDTA solution consists of 0.025% trypsin and 0.01% EDTA in PBS), for about 5 minutes for complete detachment. The cells were observed under the inverted microscope until the cell layer is completely dispersed. 75 cm^2 flasks were prepared and 16 mL of DMEM media for SK-OV-3, MCF-7, MDA-MB-231, (DMEM 4500 mg glucose) and RPMI media for HCT-116 were added to each flask. The cells were aspirated gently and added to the flasks. DMEM 4500 mg/L high glucose with 10% FBS, 5% streptomycin and penicillin, RPMI 1640 (prepared by adding 5% heat-inactivated FCS and 2 mm glutamine) were used. DMEM was also used for MCF-12A cells with the addition of human epidermal growth factor 20 ng/mL, insulin 0.01 mg/mL and hydrocortisone 500 ng/mL.
The synthesized compounds were screened for their anti-proliferative activity using 5-FU (F6627-1G, Sigma-Aldrich, St. Louis, MO, USA) as reference compound. A concentration of 0.4% DMSO was used in all experiment after ensuring 100% viability of the cell lines with this concentration. A 25 mM stock concentration of all compounds was prepared for further studies and analysis.
Cells were trypsinized and placed in a 15 mL Falcon tube, the cells were centrifuged for 3 min at 1000 rpm. Trypsin is decanted using a sterile pipette and then the pellet is loosened by flicking the tube few times then 5–10 mL warm DMEM or RPMI were added to the Falcon tube and the pellet is resuspended. Cell count was done next by taking 10 μL of the suspension into the cell counting slide and read under 10× cells/mL. A cell stock of 50,000 cells/mL was prepared for the 96 wells. Cells (100 μL) were added to each well using a sterile pipette each time to ensure consistency. The experiment was planned ahead of time using excel sheet, 3–6 wells were reserved as blank media while 3–6 wells for vehicle (DMSO). The plate was incubated for 24 h for compound treatment step. DMEM media was used to prepare different dilutions of the compounds. The old DMEM media was removed from the wells using sterile pipette in the hood and the media was replaced with 100 μL media with each compound. The plate was incubated for 24 h. After 24 h incubation, WST-1 reagent (Sigma) was added to each well and then the plate was incubated for 1 h before measuring the absorbance using VICTOR™ Multilabel Plate Reader (Perkin Elmer, Beaconsfield, UK). The absorbance of the colored solution can be quantified by measuring at a certain wavelength (usually between 500–600 nm), in this experiment the first reading was conducted at 540 nm and the second reading at 690 nm for the reference wavelength. The percentage of cell viability was determined as the ratio of the absorbance of the sample vs the control. Three independent experiments were performed. […] 5-Florouracil (Sigma-Aldrich, F6627-1G) was used as reference standard.

## COc1ccc(-c2cc(-c3ccc(OC)c(OC)c3)c(C#N)c(OCC(=O)NNC(=O)c3ccccc3)n2)cc1OC [Compound 9a, N'-[2-(3-cyano-4,6-bis(3,4-dimethoxyphenyl)pyridin-2-yloxy)acetyl]benzohydrazide]
  IC50: 9.06 ± 0.24 µM
